Experimental data: paper PMC8931317 (Proceedings of the National Academy of Sciences of the …, 2022)

Target: T1, YeiE (CsYeiE) (Cronobacter sakazakii, UniProt H9BVC9)
T1 sequence (H9BVC9 85-288): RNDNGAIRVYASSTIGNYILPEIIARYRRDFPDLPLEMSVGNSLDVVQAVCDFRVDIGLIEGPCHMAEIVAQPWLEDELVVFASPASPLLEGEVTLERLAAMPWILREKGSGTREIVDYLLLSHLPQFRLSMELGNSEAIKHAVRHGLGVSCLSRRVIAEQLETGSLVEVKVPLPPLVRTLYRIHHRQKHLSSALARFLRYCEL
Assay: ITC
Type: binding

Kd: 1.38 µM
Compound: O=S(O)O [sulfite]
